Experimental findings from patent EP0340307A1, “COMPOSITION OF POLYMER DIFFUSION MATRIX FOR TRANSDERMALLY INTRODUCING PHARMACEUTICAL SUBSTANCES” (priority 1987, dated 1989) are described below.

Where two headings read alike, the source gives them in different places.

This data set is described as follows: In vitro transdermal delivery of the drug from the diffusion matrix through human cadaver skin epidermis into Ringer solution. The text has this:
Es wurde von uns eine Diffusionsmatrix "in vitro" untersucht, die auf der Grundlage der erfindungsgemäßen Zusammensetzung hergestellt wurde.
So wird, beispielsweise, auf eine Adhäsionsschicht einer Diffusionsmatrix mit runder Form und einem Radius von 1 cm (Fläche 3,14 cm²), die auf der Grundlage einer Zusammensetzung hergestellt wird, die 26,7 g Propranolol, 40 g Polyäthylenglykol mit einer Molekularmasse von 400 und 100 g Polyvinylpyrrolidon enthält, ein Probestück aus der Epidermis der Leichenhaut eines Menschen (mit der Außenoberfläche der Epidermis an die Diffusionsmatrix) aufgeklebt. Das Laminat der Diffusionsmatrix mit der Hautepidermis taucht man in die in einem Magnetrührer zu vermischende Ringer-Lösung ein. In den vorgegebenen Zeitabständen nimmt man aus der Lösung Proben ab, in denen man den Gehalt an Propranolol mit Hilfe der Spektrofluorometrie ermittelt, wobei die vorher aufgebauten Eichkurven genutzt werden.

Regarding `O=[N+]([O-])OCC(CO[N+](=O)[O-])O[N+](=O)[O-]` [Nitroglyzerin], the “Geschwindigkeit des transdermalen Eintritts des Arzneistoffes aus der Matrix” value (drug contained in the named matrix, through cadaver skin) worked out at 39 µg/cm².h.
Regarding `CC(C)NCC(O)COc1cccc2ccccc12` (stereo not drawn) [Propranolol], the “Geschwindigkeit der transdermalen Zuführung aus einer Matrix, die einen Füllstoff enthält” value amounted to 55 µg/cm².h and the “Geschwindigkeit des transdermalen Eintritts des Arzneistoffes aus der Matrix” value worked out at 47 µg/cm².h.
